Patent US20230049952A1, “METHODS AND COMPOUNDS FOR RESTORING MUTANT P53 FUNCTION” (PMV Pharmaceuticals, Inc., priority 2020, published 2023)

Test system: p53 signaling pathway in MT373 tumors
Assay: MT373 syngeneic sarcoma model: mouse p53 signaling pathway profiling panel
Assay type: in vivo

## CCn1c(C#CCNc2ccccc2)cc2cc(CNC3CCN(C)CC3)ccc21 [Compound 1, 1-Anilino-3-{1-ethyl-5-[(1-methyl-4-piperidylamino)methyl]-1H-indol-2-yl}-2-propyne]
75 mg/kg BIDx1, 8 h
  Apex1 fold increase or percent reduction vs vehicle control: 19.97 fold or %
  Atm fold increase or percent reduction vs vehicle control: 13.42 fold or %
  Atr fold increase or percent reduction vs vehicle control: 8.05 fold or %
  Bag1 fold increase or percent reduction vs vehicle control: 24.87 fold or %
  Bax fold increase or percent reduction vs vehicle control: 1.97 fold or %
  Bbc3 fold increase or percent reduction vs vehicle control: 2.97 fold or %
  Bcl2 fold increase or percent reduction vs vehicle control: 7.84 fold or %
  Bid fold increase or percent reduction vs vehicle control: 1.19 fold or %
  Birc5 fold increase or percent reduction vs vehicle control: 15.16 fold or %
  Brca1 fold increase or percent reduction vs vehicle control: 3.14 fold or %
  Brca2 fold increase or percent reduction vs vehicle control: 5.75 fold or %
  Btg2 fold increase or percent reduction vs vehicle control: 14.84 fold or %
  Casp2 fold increase or percent reduction vs vehicle control: 17.74 fold or %
  Ccnb1 fold increase or percent reduction vs vehicle control: 4.81 fold or %
  Ccne1 fold increase or percent reduction vs vehicle control: 12.14 fold or %
  Ccng1 fold increase or percent reduction vs vehicle control: 6.19 fold or %
  Ccnh fold increase or percent reduction vs vehicle control: 15.28 fold or %
  Cdc25a fold increase or percent reduction vs vehicle control: 15.20 fold or %
  Cdk1 fold increase or percent reduction vs vehicle control: 32.00 fold or %
  Cdk4 fold increase or percent reduction vs vehicle control: 37.50 fold or %
  Cdkn1a fold increase or percent reduction vs vehicle control: 7.14 fold or %
  Cdkn2a fold increase or percent reduction vs vehicle control: 31.09 fold or %
  Chek1 fold increase or percent reduction vs vehicle control: 19.58 fold or %
  Cradd fold increase or percent reduction vs vehicle control: 21.01 fold or %
  Cul9 fold increase or percent reduction vs vehicle control: 1.73 fold or %
  Dapk1 fold increase or percent reduction vs vehicle control: 1.37 fold or %
  Dnmt1 fold increase or percent reduction vs vehicle control: 1.16 fold or %
  E2f1 fold increase or percent reduction vs vehicle control: 1.05 fold or %
  E2f3 fold increase or percent reduction vs vehicle control: 21.77 fold or %
  Egfr fold increase or percent reduction vs vehicle control: 42.31 fold or %
  Egr1 fold increase or percent reduction vs vehicle control: 59.72 fold or %
  Ep300 fold increase or percent reduction vs vehicle control: 15.26 fold or %
  Ercc1 fold increase or percent reduction vs vehicle control: 20.74 fold or %
  Esr1 fold increase or percent reduction vs vehicle control: 1.22 fold or %
  Fadd fold increase or percent reduction vs vehicle control: 2.66 fold or %
  Fas fold increase or percent reduction vs vehicle control: 1.75 fold or %
  Fasl fold increase or percent reduction vs vehicle control: 1.24 fold or %
  Foxo3 fold increase or percent reduction vs vehicle control: 1.04 fold or %
  Gadd45a fold increase or percent reduction vs vehicle control: 25.34 fold or %
  Hif1a fold increase or percent reduction vs vehicle control: 1.26 fold or %
  Il6 fold increase or percent reduction vs vehicle control: 68.47 fold or %
  Jun fold increase or percent reduction vs vehicle control: 22.75 fold or %
  Kras fold increase or percent reduction vs vehicle control: 1.03 fold or %
  Lig4 fold increase or percent reduction vs vehicle control: 1.13 fold or %
  Mdm2 fold increase or percent reduction vs vehicle control: 5.35 fold or %
  Mdm4 fold increase or percent reduction vs vehicle control: 1.03 fold or %
  Mel1 fold increase or percent reduction vs vehicle control: 24.40 fold or %
  Mlh1 fold increase or percent reduction vs vehicle control: 12.48 fold or %
  Msh2 fold increase or percent reduction vs vehicle control: 31.49 fold or %
  Myod1 fold increase or percent reduction vs vehicle control: 4.56 fold or %
  Nf1 fold increase or percent reduction vs vehicle control: 31.85 fold or %
  Nfkb1 fold increase or percent reduction vs vehicle control: 11.36 fold or %
  Pcna fold increase or percent reduction vs vehicle control: 32.47 fold or %
  Pmaip1 fold increase or percent reduction vs vehicle control: 1.60 fold or %
  Ppm1d fold increase or percent reduction vs vehicle control: 1.48 fold or %
  Prc1 fold increase or percent reduction vs vehicle control: 1.28 fold or %
  Prkca fold increase or percent reduction vs vehicle control: 5.77 fold or %
  Pten fold increase or percent reduction vs vehicle control: 0.35 fold or %
  Pttg1 fold increase or percent reduction vs vehicle control: 1.04 fold or %
  Rb1 fold increase or percent reduction vs vehicle control: 16.87 fold or %
  Rela fold increase or percent reduction vs vehicle control: 1.12 fold or %
  Rprm fold increase or percent reduction vs vehicle control: 3.08 fold or %
  Serpinb5 fold increase or percent reduction vs vehicle control: 3.96 fold or %
  Sesn2 fold increase or percent reduction vs vehicle control: 3.24 fold or %
  Sfn fold increase or percent reduction vs vehicle control: 1.12 fold or %
  Sirt1 fold increase or percent reduction vs vehicle control: 1.09 fold or %
  Stat1 fold increase or percent reduction vs vehicle control: 1.35 fold or %
  Tnf fold increase or percent reduction vs vehicle control: 1.85 fold or %
  Traf1 fold increase or percent reduction vs vehicle control: 1.23 fold or %
  Trp53bp2 fold increase or percent reduction vs vehicle control: 12.87 fold or %
  Trp53 fold increase or percent reduction vs vehicle control: 1.13 fold or %
75 mg/kg BIDx1, 24 h
  Apex1 fold increase or percent reduction vs vehicle control: 30.49 fold or %
  Atm fold increase or percent reduction vs vehicle control: 23.68 fold or %
  Atr fold increase or percent reduction vs vehicle control: 10.08 fold or %
  Bag1 fold increase or percent reduction vs vehicle control: 25.05 fold or %
  Bax fold increase or percent reduction vs vehicle control: 1.60 fold or %
  Bbc3 fold increase or percent reduction vs vehicle control: 1.80 fold or %
  Bcl2 fold increase or percent reduction vs vehicle control: 30.58 fold or %
  Bid fold increase or percent reduction vs vehicle control: 1.04 fold or %
  Birc5 fold increase or percent reduction vs vehicle control: 45.92 fold or %
  Brca1 fold increase or percent reduction vs vehicle control: 42.43 fold or %
  Brca2 fold increase or percent reduction vs vehicle control: 36.40 fold or %
  Btg2 fold increase or percent reduction vs vehicle control: 31.06 fold or %
